Measured values from US20130345205A1, “SUBSTITUTED BICYCLIC ARALKYL PYRAZOLE LACTAM ANALOGS AS ALLOSTERIC MODULATORS OF MGLUR5 RECEPTORS” (Vanderbilt University, priority 2012, published 2013).

Columns and labels:
human mGluR5 = human mGluR5 (Homo sapiens, UniProt P41594); test: Cell-based functional Ca2+ mobilization assay (FDSS), potentiation of glutamate EC20 response; conditions: H10H cell-line (HEK, recombinant human mGluR5); for Emax: glutamate EC20, maximum average response at a single concentration, percent of maximal glutamate response; for EC50: positive allosteric modulation in presence of glutamate EC20, concentration in mol/L
Chain of human mGluR5 (P41594 21-1180 isoform P41594-2 limits assumed): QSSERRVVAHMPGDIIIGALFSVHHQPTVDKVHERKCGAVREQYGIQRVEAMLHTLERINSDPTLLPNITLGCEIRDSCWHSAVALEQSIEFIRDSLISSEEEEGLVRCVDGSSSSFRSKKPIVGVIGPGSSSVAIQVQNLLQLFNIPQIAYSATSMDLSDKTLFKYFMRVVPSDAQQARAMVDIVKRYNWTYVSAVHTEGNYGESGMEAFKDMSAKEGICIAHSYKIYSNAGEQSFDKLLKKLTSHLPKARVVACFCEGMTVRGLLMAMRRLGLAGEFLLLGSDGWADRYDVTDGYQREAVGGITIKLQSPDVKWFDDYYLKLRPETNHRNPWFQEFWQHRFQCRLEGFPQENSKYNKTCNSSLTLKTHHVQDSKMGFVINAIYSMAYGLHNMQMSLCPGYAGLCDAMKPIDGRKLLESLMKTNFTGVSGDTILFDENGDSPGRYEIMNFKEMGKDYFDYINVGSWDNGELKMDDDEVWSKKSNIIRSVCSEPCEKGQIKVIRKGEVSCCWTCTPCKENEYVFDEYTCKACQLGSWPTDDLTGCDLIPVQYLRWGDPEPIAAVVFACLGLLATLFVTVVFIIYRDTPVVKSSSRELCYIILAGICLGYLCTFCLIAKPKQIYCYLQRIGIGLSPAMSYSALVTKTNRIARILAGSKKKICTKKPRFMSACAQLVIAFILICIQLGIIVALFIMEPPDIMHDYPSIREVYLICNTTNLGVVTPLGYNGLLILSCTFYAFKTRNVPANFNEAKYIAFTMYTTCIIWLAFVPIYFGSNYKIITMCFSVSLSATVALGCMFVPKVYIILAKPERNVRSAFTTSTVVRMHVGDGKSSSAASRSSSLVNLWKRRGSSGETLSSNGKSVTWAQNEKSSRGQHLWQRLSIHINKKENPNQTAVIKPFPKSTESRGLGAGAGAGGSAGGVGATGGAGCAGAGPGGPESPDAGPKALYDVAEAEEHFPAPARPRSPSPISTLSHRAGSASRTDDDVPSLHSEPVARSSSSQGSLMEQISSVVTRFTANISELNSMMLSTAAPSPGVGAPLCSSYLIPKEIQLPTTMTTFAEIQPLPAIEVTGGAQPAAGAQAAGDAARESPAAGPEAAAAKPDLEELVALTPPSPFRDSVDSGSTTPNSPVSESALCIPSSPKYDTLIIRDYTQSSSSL
Source text: Human mGluR5a cDNA in pCMV6-XL6 mammalian expression plasmid was purchased from OriGene Technologies, Inc. (catalogue number SC326357) and subcloned into pcDNA3.1(−). Human embryonic kidney (HEK) 293A cells were then transfected with human mGluR5a pcDNA3.1(−) using LipofectAmine2000 (Invitrogen) and monoclones were selected and tested for functional response using a Ca^2+ mobilization assay. Monoclones were named for the species (“H” for human) plus the location on the plate (e.g. “10H”).
HEK cells transfected with the human mGluR5a receptor (H10H or H12H cell line) were plated at 15,000 cells/well in clear-bottomed poly-D-lysine-coated assay plates (BD Falcon) in glutamate-glutamine-free growth medium and incubated overnight at 37° C. and 5% CO2. Cell-lines used were either the H10H or H12H cell-lines expressing the human mGluR5 receptor. The following day, the growth medium was removed and the cells were washed with assay buffer containing 1× Hank's balanced salt solution (Invitrogen, Carlsbad, Calif.), 20 mM HEPES, 2.5 mM probenecid, pH 7.4 and left with 20 μL of this reagent. Following this step, the cells were loaded with calcium indicator dye, fluo-4 AM, to a final concentration of 2 μM and incubated for 40-45 min at 37° C. The dye solution was removed and replaced with assay buffer. Cell plates were held for 10-15 min at room temperature and were then loaded into the Functional Drug Screening System 6000 (FDSS 6000, Hamamatsu, Japan).
After establishment of a fluorescence baseline for about 3 seconds, the compounds of the present invention were added to the cells, and the response in cells was measured. 2.3 minutes later an EC20 concentration of the mGluR5 receptor agonist glutamate was added to the cells, and the response of the cells was measured for about 1.7 minutes. All test compounds were dissolved and diluted to a concentration of 10 mM in 100% DMSO and then serially diluted into assay buffer for a 2× stock solution in 0.6% DMSO; stock compounds were then added to the assay for a final DMSO concentration of 0.3% after the first addition to the assay well. Calcium fluorescence measures were recorded as fold over basal fluorescence; raw data was then normalized to the maximal response to glutamate. Potentiation of the agonist response of the mGluR5 receptor in the present invention was observed as an increase in response to submaximal concentrations of glutamate in the presence of compound compared to the response to glutamate in the absence of compound.
The concentration-response curves of compounds of the present invention, obtained in the presence of EC20 of mGluR5 receptor agonist glutamate to determine positive allosteric modulation, were generated using Microsoft Excel with IDBS XLFit add-ins. The raw data file containing all time points was used as the data source in the analysis template. This was saved by the FDSS as a tab-delimited text file. Data were normalized using a static ratio function (F/F0) for each measurement of the total 350 values per well divided by each well's initial value. Data was then reduced as to peak amplitudes (Max-Initial Min) using a time range that starts approximately 1 second after the glutamate EC20 addition and continues for approximately 40 seconds. This is sufficient time to capture the peak amplitude of the cellular Calcium response. Individual amplitudes were expressed as % EMax by multiplying each amplitude by 100 and then dividing the product by the mean of the amplitudes derived from the glutamate ECMax-treated wells. pEC50 values for test compounds were generated by fitting the normalized values versus the log of the test compound concentration (in mol/L) using a 4 parameter logistic equation where none of the parameters were fixed. Each of the three values collected at each concentration of test compound were weighted evenly. Individual values falling outside the 95% prediction limits of the curve fit were automatically excluded from the fit. […]

SMILES	Emax (human mGluR5) [%]	EC50 (human mGluR5) [nM]	melting point [°C]
Cc1nc(CN2CCn3nc(COc4ccccc4)cc3C2=O)cs1 [Example B97]	65	417	121.9
O=C1c2cc(COc3ccccc3)nn2CCN1Cc1ncccc1F [Example B83]	77	417	117.2
COc1ccc(CN2CCn3nc(COc4cc(C)ccn4)cc3C2=O)cc1 [Example B30]	61	> 10000	> 300
Cc1ccnc(OCc2cc3n(n2)CCN(Cc2ccccc2)C3=O)c1 [Example B62]	39	759	75.4
O=C1c2cc(COc3ccccc3)nn2CCN1Cc1ccc(C(F)(F)F)nc1 [Example B95]	75	372	115.4
COc1cccnc1CN1CCn2nc(COc3ccccc3)cc2C1=O [Example B75]	71	1150	132.4
COc1ccc(CN2CCn3nc(COc4cccc(C)n4)cc3C2=O)cc1 [Example B29]	37	> 10000	91.2
COc1ccc(CN2CCn3nc(COc4ccccn4)cc3C2=O)cc1 [Example B101]	68	1290	95
O=C1c2cc(COc3ccccc3)nn2CCN1Cc1ccc(Cl)cc1 [Example B48]	65	155	169

Compounds with a lower EC50 (human mGluR5), results first:

Emax (human mGluR5) [%]	EC50 (human mGluR5) [nM]	melting point [°C]	SMILES
64	87.1	94.6	O=C1c2cc(COc3ccccc3)nn2CCCN1Cc1ccccc1 [Example B2, 5-benzyl-2-(phenoxymethyl)-5,6,7,8-tetrahydro-4H-pyrazolo[1,5-a][1,4]diazepin-4-one]
73	25.7	131.3	O=C1c2cc(COc3ccccc3)nn2CCN1Cc1cccc2cccnc12 [Example B93]
65.5	17.8	116	COc1c(Cl)cccc1CN1CCn2nc(COc3ccccc3)cc2C1=O [Example B68]
63	46.8	104.9	O=C1c2cc(COc3cccc(F)c3)nn2CCN1Cc1ccccc1 [Example B11, 5-benzyl-2-[(3-fluorophenoxy)methyl]-6,7-dihydropyrazolo[1,5-a]pyrazin-4(5H)-one]
69	61.7	129.8	O=C1c2cc(COc3ccccc3)nn2CCN1Cc1ccc(F)cc1F [Example B22]
65	47.9	95	O=C1c2cc(COc3ccccc3)nn2CCN1Cc1cccc(F)c1 [Example B20]
